Test results published in patent US10485795B2, “FXR (NR1H4) binding and activity modulating compounds” (Gilead Sciences, Inc., priority 2011, dated 2019).
Read-outs that look alike come from different tables or passages of the source. Each block holds one compound with its values, some of them ahead of it.

Key:
[1] = biological target: T1, FXR ligand binding domain (Homo sapiens, UniProt Q96RI1); assay: Mammalian One Hybrid (M1H) assay, Gal4 reporter in HEK293 cells; format: cell-based
T1 construct: expressed in transfected cells; host or cells: HEK293 (DSMZ), transient transfection with a pCMV-BD construct
T1 sequence (Q96RI1 187-472 isoform Q96RI1-2): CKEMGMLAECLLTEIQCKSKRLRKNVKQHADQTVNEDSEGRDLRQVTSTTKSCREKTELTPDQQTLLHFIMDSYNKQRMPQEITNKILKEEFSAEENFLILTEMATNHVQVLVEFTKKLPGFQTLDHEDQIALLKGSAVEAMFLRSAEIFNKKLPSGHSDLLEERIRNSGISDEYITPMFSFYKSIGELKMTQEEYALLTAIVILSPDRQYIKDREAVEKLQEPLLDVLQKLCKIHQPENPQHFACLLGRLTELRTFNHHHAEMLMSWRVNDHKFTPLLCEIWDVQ
Description: Determination of a ligand mediated Gal4 promoter driven transactivation to quantify ligand binding mediated activation of FXR was performed as follows: The cDNA part encoding the FXR ligand binding domain was cloned into vector pCMV-BD (Stratagene) as a fusion to the yeast GAL4 DNA binding domain under the control of the CMV promoter. […] The plasmid pFR-Luc (Stratagene) was used as the reporter plasmid, containing a synthetic promoter with five tandem repeats of the yeast GAL4 binding sites, driving the expression of the Photinus pyralis (American firefly) luciferase gene as the reporter gene. In order to improve experimental accuracy the plasmid pRL-CMV (Promega) was cotransfected. pRL-CMV contains the constitutive CMV promoter, controlling the expression of the Renilla reniformis luciferase. All Gal4 reporter gene assays were done in HEK293 cells (obtained from DSMZ, Braunschweig, Germany) grown in MEM with L-Glutamine and Earle's BSS supplemented with 10% fetal bovine serum, 0.1 mM nonessential amino acids, 1 mM sodium pyruvate, and 100 units Penicillin/[…] per mL at 37° C. in 5% CO2. Medium and supplements were obtained from Invitrogen. For the assay, […] were plated per well in 96 well plates in 100 μL per well MEM without Phenol Red and L-Glutamine and with Earle's BSS supplemented with 10% charcoal/dextran treated FBS (HyClone, South Logan, Utah), 0.1 mM nonessential amino acids, 2 mM glutamine, 1 mM sodium pyruvate, and 100 units Penicillin/[…] per mL, incubated at 37° C. in 5% CO2. The following day the cells were >90% confluence. […] MEM with the same composition as used for plating cells was added 2-4 h after addition of transfection mixture. Then compound stocks, prediluted in MEM were added (final vehicle concentration not exceeding 0.1%). […] All experiments were done in triplicates.

[2] = biological target: T2, human FXR alpha ligand binding domain (Homo sapiens, UniProt Q96RI1); assay: FRET activity assay (ligand mediated cofactor peptide interaction); format: biochemical
T2 construct: made in house; host or cells: E. coli BL21(DE3), vector pDEST15
T2 sequence (Q96RI1 187-472 isoform Q96RI1-2): T1 sequence (Q96RI1 187-472 isoform Q96RI1-2)
Description: Determination of a ligand mediated cofactor peptide interaction to quantify ligand binding to the nuclear receptor FXR was performed as follows: Preparation of human FXR alpha ligand binding domain: The human FXRalpha LBD was expressed in E. coli strain BL21(DE3) as an N-terminally GST tagged fusion protein. The DNA encoding the FXR ligand binding domain was cloned into vector pDEST15 (Invitrogen). Expression was under control of an IPTG inducible T7 promoter. The amino acid boundaries of the ligand binding domain were amino acids 187-472 of Database entry NM_005123 (RefSeq). Expression and purification of the FXR-LBD: An overnight preculture of a transformed E. coli strain was diluted 1:20 in LB-Ampicillin medium and grown at 30° C. to an optical density of OD600=0.4-0.6. Gene expression was then induced by addition of 0.5 mM IPTG. Cells were incubated an additional 6 h at 30° C., 180 rpm. Cells were collected by centrifugation (7000×g, 7 min, rt). Per liter of original cell culture, cells were resuspended in 10 mL lysis buffer (50 mM Glucose, 50 mM Tris pH 7.9, 1 mM EDTA and 4 mg/mL lysozyme) and left on ice for 30 min. Cells were then subjected to sonication and cell debris removed via centrifugation (22000×g, 30 min, 4° C.). Per 10 mL of supernatant 0.5 mL prewashed Glutathione 4B sepharose slurry (Qiagen) was added and the suspension kept slowly rotating for 1 h at 4° C. Glutathione 4B sepharose beads were pelleted by centrifugation (2000×g, 15 sec, 4° C.) and washed twice in wash buffer (25 mM Tris, 50 mM KCl, 4 mM MgCl2 and 1M NaCl). The pellet was resuspended in 3 mL elution buffer per liter of original culture (elution buffer: 20 mM Tris, 60 mM KCl, 5 mM MgCl2 and 80 mM glutathione added immediately prior to use as powder). The suspension was left rotating for 15 min at 4° C., the beads pelleted and eluted again with half the volume of elution buffer than the first time. The eluates were pooled and dialysed overnight in 20 mM Hepes buffer (pH 7.5) containing 60 mM KCl, 5 mM MgCl2 as well as 1 mM dithiothreitol and 10% (v/v) glycerol. The protein was analysed by SDS-Page.
The method measures the ability of putative ligands to modulate the interaction between the purified bacterial expressed FXR ligand binding domain (LBD) and a synthetic biotinylated peptide based on residues 676-700 of SRC-1 (LCD2, 676-700). The sequence of the peptide used was B-[…]-COOH where the N-terminus was biotinylated (B). The ligand binding domain (LBD) of FXR was expressed as fusion protein with GST in BL-21 cells using the vector pDEST15. Cells were lysed by sonication, and the fusion proteins purified over glutathione sepharose (Pharmacia) according to the manufacturers instructions. For screening of compounds for their influence on the FXR-peptide interaction, the Perkin Elmer LANCE technology was applied. This method relies on the binding dependent energy transfer from a donor to an acceptor fluorophor attached to the binding partner of interest. For ease of handling and reduction of background from compound fluorescence LANCE technology makes use of generic fluorophore labels and time resolved detection Assays were done in a final volume of 25 μL in a 384 well plate, in a Tris-based buffer (20 mM Tris-HCl pH 7.5; 60 mM KCl, 5 mM MgCl2; 35 ng/μL BSA), containing 20-60 ng/well recombinantly expressed FXR-LBD fused to GST, 200-600 nM N-terminally biotinylated peptide, representing SRC1 aminoacids 676-700, 200 ng/well Streptavidin-xIAPC conjugate (Prozyme) and 6-10 ng/well Eu W1024-antiGST (Perkin Elmer). DMSO content of the samples was kept at 1%. After generation of the assay mix and diluting the potentially FXR modulating ligands, the assay was equilibrated for 1 h in the dark at rt in FIA-plates black 384 well (Greiner). The LANCE signal was detected by a Perkin Elmer VICTOR2VTM Multilabel Counter. The results were visualized by plotting the ratio between the emitted light at 665 and 615 nm. […]

[3] = Gal4-FXR LBD transactivation, HEK293 cells, read-out: EC50 potency range (Group), M1H assay
[4] = FXR-LBD/SRC-1 peptide interaction, LANCE, read-out: EC50 (Group), FRET activity assay

Structure (SMILES): COc1ccc(C(=O)O)cc1C1CC(O)(c2ccc(OCc3c(-c4c(Cl)cccc4Cl)noc3C3CC3)cc2Cl)C1 (single isomer, unassigned) [13/3]
- EC50 [1, 3]: 25 to 100 nM
- EC50 [2, 4]: 25 to 100 nM

Structure (SMILES): Cc1ccc(C(=O)O)cc1C1CC(O)(c2ccc(OCc3c(-c4c(Cl)cccc4Cl)noc3C3CC3)cc2Cl)C1 (single isomer, unassigned) [13/4]
- EC50 [1, 3]: < 25 nM
- EC50 [2, 4]: 25 to 100 nM

Structure (SMILES): Cc1cc(C(=O)O)cc(C2CC(O)(c3ccc(OCc4c(-c5c(Cl)cccc5Cl)noc4C4CC4)cc3Cl)C2)c1 (single isomer, unassigned) [13/5]
- EC50 [1, 3]: < 25 nM
- EC50 [2, 4]: 25 to 100 nM

Structure (SMILES): Cc1ccc(C2CC(O)(c3ccc(OCc4c(-c5c(Cl)cccc5Cl)noc4C4CC4)cc3Cl)C2)cc1C(=O)O (single isomer, unassigned) [13/6]
- EC50 [1, 3]: < 25 nM
- EC50 [2, 4]: > 100 nM

Structure (SMILES): O=C(O)c1cccc(N2CC(O)(c3ccc(OCc4c(-c5c(Cl)cccc5Cl)noc4C4CC4)cc3Cl)C2)c1 (single isomer, unassigned) [13/7]
- EC50 [1, 3]: 25 to 100 nM
- EC50 [2, 4]: 25 to 100 nM

Structure (SMILES): O=C(O)c1cncc(N2CC(O)(c3ccc(OCc4c(-c5c(Cl)cccc5Cl)noc4C4CC4)cc3Cl)C2)c1 (single isomer, unassigned) [13/8]
- EC50 [1, 3]: > 100 nM
- EC50 [2, 4]: < 25 nM

Structure (SMILES): O=C(O)c1ccc(C2CC(O)(c3ccc(OCc4c(-c5c(Cl)cccc5Cl)noc4C4CC4)cc3Cl)C2)cc1 (single isomer, unassigned) [Example 13/1]
- EC50 [1, 3]: 25 to 100 nM
- EC50 [2, 4]: 25 to 100 nM

Structure (SMILES): CC(C)n1nc(C(=O)NCCS(=O)(=O)O)cc1C1CC(O)(c2ccc(OCc3c(-c4c(Cl)cccc4Cl)noc3C3CC3)cc2Cl)C1 (stereo not shown) [14/2]
- EC50 [2, 4]: < 25 nM

Structure (SMILES): O=C(O)c1cccc([C@H]2C[C@](O)(c3ccc(OCc4c(-c5c(Cl)cccc5Cl)noc4C4CC4)cc3Cl)C2)c1 [Example 2, 3-((1s,3s)-3-(2-Chloro-4-((5-cyclopropyl-3-(2,6-dichlorophenyl)isoxazol-4-yl)methoxy)phenyl)-3-hydroxycyclobutyl)benzoic Acid]
- EC50 [1, 3]: 25 to 100 nM
- EC50 [2, 4]: 25 to 100 nM

Structure (SMILES): NS(=O)(=O)c1cccc(C2CC(O)(c3ccc(OCc4c(-c5c(Cl)cccc5Cl)noc4C4CC4)cc3Cl)C2)c1 (stereo not shown) [Example 5, 3-(3-(2-Chloro-4-((5-cyclopropyl-3-(2,6-dichlorophenyl)isoxazol-4-yl)methoxy)phenyl)-3-hydroxycyclobutyl)benzenesulfonamide]
- EC50 [1, 3]: > 100 nM
- EC50 [2, 4]: 25 to 100 nM

Structure (SMILES): CC(C)n1nc(C(=O)O)cc1[C@H]1C[C@](O)(c2ccc(OCc3c(-c4c(Cl)cccc4Cl)noc3C3CC3)cc2Cl)C1 [Example 8, 5-((1s,3s)-3-(2-Chloro-4-((5-cyclopropyl-3-(2,6-dichlorophenyl)isoxazol-4-yl)methoxy)phenyl)-3-hydroxycyclobutyl)-1-isopropyl-1H-pyrazole-3-carboxylic Acid]
- EC50 [1, 3]: 25 to 100 nM
- EC50 [2, 4]: < 25 nM

Structure (SMILES): Cn1nc(C(=O)O)c2ccc(C3CC(O)(c4ccc(OCc5c(-c6c(Cl)cccc6Cl)noc5C5CC5)cc4Cl)C3)cc21 (stereo not shown) [Example 10, 6-(3-(2-Chloro-4-((5-cyclopropyl-3-(2,6-dichlorophenyl)isoxazol-4-yl)methoxy)phenyl)-3-hydroxycyclobutyl)-1-methyl-1H-indazole-3-carboxylic Acid]
- EC50 [1, 3]: 25 to 100 nM
- EC50 [2, 4]: < 25 nM

Continued, values first:

- EC50 [1, 3]: > 100 nM
- EC50 [2, 4]: > 100 nM
Structure (SMILES): Cc1cc(C2CC(O)(c3ccc(OCc4c(-c5c(Cl)cccc5Cl)noc4C4CC4)cc3Cl)C2)cc(C)c1C(=O)O (single isomer, unassigned) [13/2]

- EC50 [1]: > 100 nM
- EC50 [2]: < 25 nM
Structure (SMILES): O=C(O)c1ccnc(N2CC(O)(c3ccc(OCc4c(-c5c(Cl)cccc5Cl)noc4C4CC4)cc3Cl)C2)c1 (single isomer, unassigned) [13/9]

- EC50 [1, 3]: > 100 nM
- EC50 [2, 4]: 25 to 100 nM
Structure (SMILES): COC(=O)c1cccc([C@H]2C[C@](O)(c3ccc(OCc4c(-c5c(Cl)cccc5Cl)noc4C4CC4)cc3Cl)C2)c1 [Example 1, Methyl 3-((1s,3s)-3-(2-chloro-4-((5-cyclopropyl-3-(2,6-dichlorophenyl)isoxazol-4-yl)methoxy)phenyl)-3-hydroxycyclobutyl)benzoate]

- EC50 [1, 3]: > 100 nM
- EC50 [2, 4]: < 25 nM
Structure (SMILES): CS(=O)(=O)NC(=O)c1cccc([C@H]2C[C@](O)(c3ccc(OCc4c(-c5c(Cl)cccc5Cl)noc4C4CC4)cc3Cl)C2)c1 [Example 4, 3-((1s,3s)-3-(2-Chloro-4-((5-cyclopropyl-3-(2,6-dichlorophenyl)isoxazol-4-yl)methoxy)phenyl)-3-hydroxycyclobutyl)-N-(methylsulfonyl)benzamide]

- EC50 [1, 3]: > 100 nM
- EC50 [2, 4]: 25 to 100 nM
Structure (SMILES): CS(=O)(=O)c1cccc(C2CC(O)(c3ccc(OCc4c(-c5c(Cl)cccc5Cl)noc4C4CC4)cc3Cl)C2)c1 (stereo not shown) [Example 6, 1-(2-Chloro-4-((5-cyclopropyl-3-(2,6-dichlorophenyl)isoxazol-4-yl)methoxy)phenyl)-3-(3-(methylsulfonyl)phenyl)cyclobutanol]

- EC50 [1, 3]: 25 to 100 nM
- EC50 [2, 4]: 25 to 100 nM
Structure (SMILES): CC(C)n1nc(C(=O)O)cc1[C@H]1C[C@@](O)(c2ccc(OCc3c(-c4c(Cl)cccc4Cl)noc3C3CC3)cc2Cl)C1 [Example 8A, 5-((1r,3r)-3-(2-Chloro-4-((5-cyclopropyl-3-(2,6-dichlorophenyl)isoxazol-4-yl)methoxy)phenyl)-3-hydroxycyclobutyl)-1-isopropyl-1H-pyrazole-3-carboxylate]

- EC50 [1, 3]: > 100 nM
- EC50 [2, 4]: < 25 nM
Structure (SMILES): CC(C)n1nc(C(=O)NCC(=O)O)cc1C1CC(O)(c2ccc(OCc3c(-c4c(Cl)cccc4Cl)noc3C3CC3)cc2Cl)C1 (stereo not shown) [Example 14/1]
